Where two headings read alike, the source gives them in different places.
Test: Pharmacokinetics after iv and oral dosing
Type: in vivo, BALB/c mice
Settings: for half-life: read-out: t1/2z (converted)
[1] = mouse, plasma, iv 2 mg/kg, female BALB/c mice
[2] = mouse, plasma, iv 2 mg/kg, male BALB/c mice
[3] = mouse, plasma, po 30 mg/kg, female BALB/c mice
[4] = mouse, plasma, po 30 mg/kg, male BALB/c mice
[5] = mouse, plasma, po 60 mg/kg, female BALB/c mice
[6] = mouse, plasma, po 60 mg/kg, male BALB/c mice
[7] = mouse, plasma, po 120 mg/kg, female BALB/c mice
[8] = mouse, plasma, po 120 mg/kg, male BALB/c mice
[9] = po 30 mg/kg, female BALB/c mice
[10] = po 60 mg/kg, female BALB/c mice
[11] = po 120 mg/kg, female BALB/c mice

Cc1cc(C#N)cc(C)c1Oc1nc(NC2CCN(Cc3ccc(S(N)(=O)=O)cc3)CC2)nc2ccsc12 [K-5a2]
bioavailability (BALB/c, mouse, plasma, female mice, oral doses, read-out: Oral bioavailability): 8.5 ± 2.7% | bioavailability (BALB/c, mouse, plasma, male mice, oral doses, read-out: Oral bioavailability): 6.8 ± 1.3% | Tmax (both, mouse, plasma, single oral administration at 30, 60, or 120 mg/kg, BALB/c mice, read-out: Time to peak plasma concentration): 15 to 30 min | Cmax (female, BALB/c, mouse, plasma, iv, 2 mg/kg, iv 2 mg/kg, female BALB/c mice, read-out: Cmax): 1100 ng/mL | Cmax (female, BALB/c, mouse, plasma, po, 30 mg/kg, po 30 mg/kg, female BALB/c mice, read-out: Cmax): 416 ng/mL | Cmax (female, BALB/c, mouse, plasma, po, 60 mg/kg, po 60 mg/kg, female BALB/c mice, read-out: Cmax): 1100 ng/mL | Cmax (female, BALB/c, mouse, plasma, po, 120 mg/kg, po 120 mg/kg, female BALB/c mice, read-out: Cmax): 1940 ng/mL | Cmax (iv 2 mg/kg, female BALB/c mice, 2 mg/kg): 1098.3 ng/mL | Cmax (iv 2 mg/kg, male BALB/c mice, 2 mg/kg): 1078.7 ng/mL | Cmax (male, BALB/c, mouse, plasma, iv, 2 mg/kg, iv 2 mg/kg, male BALB/c mice, read-out: Cmax): 1080 ng/mL | Cmax (male, BALB/c, mouse, plasma, po, 30 mg/kg, po 30 mg/kg, male BALB/c mice, read-out: Cmax): 345 ng/mL | Cmax (male, BALB/c, mouse, plasma, po, 60 mg/kg, po 60 mg/kg, male BALB/c mice, read-out: Cmax): 749 ng/mL | Cmax (male, BALB/c, mouse, plasma, po, 120 mg/kg, po 120 mg/kg, male BALB/c mice, read-out: Cmax): 1680 ng/mL | AUC(0-t) [1]: 461 ng·h/mL | clearance [1]: 69.2 mL/min/kg | Tmax (mouse, plasma, iv 2 mg/kg, female BALB/c mice, read-out: Tmax): 1.98 min | Vd (mouse, plasma, iv 2 mg/kg, female BALB/c mice, read-out: Vd): 14.1 L/kg | half-life [1]: 141 min | AUC(0-t) [2]: 454 ng·h/mL | clearance [2]: 70.5 mL/min/kg | Tmax (mouse, plasma, iv 2 mg/kg, male BALB/c mice, read-out: Tmax): 1.98 min | Vd (mouse, plasma, iv 2 mg/kg, male BALB/c mice, read-out: Vd): 13.3 L/kg | half-life [2]: 131 min | AUC(0-t) [3]: 488 ng·h/mL | bioavailability (mouse, plasma, po 30 mg/kg, female BALB/c mice, read-out: F): 7.05% | Tmax (mouse, plasma, po 30 mg/kg, female BALB/c mice, read-out: Tmax): 15 min | half-life [3]: 65.4 min | AUC(0-t) [4]: 482 ng·h/mL | bioavailability (mouse, plasma, po 30 mg/kg, male BALB/c mice, read-out: F): 7.08% | Tmax (mouse, plasma, po 30 mg/kg, male BALB/c mice, read-out: Tmax): 30 min | half-life [4]: 62.4 min | AUC(0-t) [5]: 1420 ng·h/mL | bioavailability (mouse, plasma, po 60 mg/kg, female BALB/c mice, read-out: F): 10.2% | Tmax (mouse, plasma, po 60 mg/kg, female BALB/c mice, read-out: Tmax): 15 min | half-life [5]: 71.4 min | AUC(0-t) [6]: 968 ng·h/mL | bioavailability (mouse, plasma, po 60 mg/kg, male BALB/c mice, read-out: F): 7.1% | Tmax (mouse, plasma, po 60 mg/kg, male BALB/c mice, read-out: Tmax): 30 min | half-life [6]: 85.2 min | AUC(0-t) [7]: 3580 ng·h/mL | bioavailability (mouse, plasma, po 120 mg/kg, female BALB/c mice, read-out: F): 12.9% | Tmax (mouse, plasma, po 120 mg/kg, female BALB/c mice, read-out: Tmax): 30 min | half-life [7]: 49.2 min | AUC(0-t) [8]: 2460 ng·h/mL | bioavailability (mouse, plasma, po 120 mg/kg, male BALB/c mice, read-out: F): 9.05% | Tmax (mouse, plasma, po 120 mg/kg, male BALB/c mice, read-out: Tmax): 30 min | half-life [8]: 105 min | CL [9]: 1007 mL/min/kg | Vd [9]: 95.0 L/kg | CL (po 30 mg/kg, male BALB/c mice): 1016 mL/min/kg | Vd (po 30 mg/kg, male BALB/c mice): 91.4 L/kg | CL [10]: 697.5 mL/min/kg | Vd [10]: 71.9 L/kg | CL (po 60 mg/kg, male BALB/c mice): 1021 mL/min/kg | Vd (po 60 mg/kg, male BALB/c mice): 125.1 L/kg | CL [11]: 557.2 mL/min/kg | Vd [11]: 39.7 L/kg | CL (po 120 mg/kg, male BALB/c mice): 791.3 mL/min/kg | Vd (po 120 mg/kg, male BALB/c mice): 120.2 L/kg

— PMC9699427 (Viruses, 2022)
